Laboratory results reported in PubChem BioAssay (NCI).
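Exposure lasted 48 hours, with cells grown in 96-well plates and compounds tested at five concentrations. Here, GI50 denotes the concentration required for 50% inhibition of growth. TGI is the concentration that stops growth completely.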

Key:
Test in all cases: DTP human tumour cell line panel, 48 h
TK-10 renal = tested on: TK-10 renal
KM12 colon = tested on: KM12 colon
MDA-MB-231 breast = tested on: MDA-MB-231 breast
NCI/ADR-RES ovarian = tested on: NCI/ADR-RES ovarian
IGROV1 ovarian = tested on: IGROV1 ovarian
U251 CNS = tested on: U251 CNS
LOX IMVI melanoma = tested on: LOX IMVI melanoma
UACC-257 melanoma = tested on: UACC-257 melanoma
786-0 renal = tested on: 786-0 renal
SNB-75 CNS = tested on: SNB-75 CNS

Compound | GI50 (TK-10 renal) [µM] | TGI (TK-10 renal) [µM] | GI50 (KM12 colon) [µM] | TGI (KM12 colon) [µM] | GI50 (MDA-MB-231 breast) [µM] | TGI (MDA-MB-231 breast) [µM] | GI50 (NCI/ADR-RES ovarian) [µM] | TGI (NCI/ADR-RES ovarian) [µM] | GI50 (IGROV1 ovarian) [µM] | TGI (IGROV1 ovarian) [µM] | GI50 (U251 CNS) [µM] | TGI (U251 CNS) [µM] | GI50 (LOX IMVI melanoma) [µM] | TGI (LOX IMVI melanoma) [µM] | GI50 (UACC-257 melanoma) [µM] | TGI (UACC-257 melanoma) [µM] | GI50 (786-0 renal) [µM] | TGI (786-0 renal) [µM] | GI50 (SNB-75 CNS) [µM] | TGI (SNB-75 CNS) [µM]
NC1CCC(Nc2nc(NCc3ccc(-c4cccs4)nc3)c3ncn(C4CCCC4)c3n2)CC1 (stereo not given) | 0.166 | 2.69 | 0.0285 | 0.743 | 0.024 | 1.59 | 0.244 | 4.29 | 0.0363 | 1.93 | 0.0327 | 0.434 | 0.296 | 3.48 | 0.0568 | 0.295 | 0.122 | 1.12 | 0.016 | 0.0588
C[C@H](Nc1ncnc2nc[nH]c12)c1cc2ccc(F)cc2nc1-c1ccccn1 | 47.4 | > 100 | > 100 | > 100 | > 80 | > 100 | > 100 | > 100 | 20.4 | > 100 | > 100 | > 100 | > 86.2 | > 100 | > 100 | > 100 | 14.3 | > 100 | 2.68 | 60.5
N#Cc1ccccc1NC(=O)C(=O)c1c(O)c2ccccc2oc1=O |  | > 100 |  | > 100 |  | > 100 |  | > 100 |  | > 100 |  | > 100 |  | > 100 |  | > 100 |  | > 100 |  | > 100
CC1COc2c(N3CCN(C)CC3)c(F)cc3c(=O)c(C(=O)O)cn1c23 (stereo not given) | > 100 | > 100 | > 100 | > 100 | 81.7 | > 100 | > 100 | > 100 | > 100 | > 100 | > 100 | > 100 | > 100 | > 100 | > 100 | > 100 | > 100 | > 100 | > 100 | > 100
CCN1C(=O)N(CC)C2Nn3c(s/c(=C\c4ccccc4Br)c3=O)=NC21 (stereo not given) | 9.34 | > 100 | 0.501 | 6.13 | 1.89 | 8.62 | 1.74 | 43.7 | 2.77 | > 100 | 0.676 | 19.4 | 2.43 | 30.6 | 12.9 | > 100 | 3.18 | > 100 | 0.797 | 8.3
O=C(CN(/C=C/C(=O)C(F)(F)F)c1ccc(Cl)cc1)c1ccccc1 | 7.88 | 37.2 | 10.8 | 36.6 | 15.8 | 33.8 | 14.1 | 30.3 | 0.303 | 24.3 | 15.8 | 30.8 | 5.26 | 22.3 | 14.5 | 34.9 | 13.5 | 31.3 | 12.9 | 41.1
